“Also recorded” adds a separate entry of the source.
Tests used:
[1] = Lozenge of oxaloacetic acid with a test substance, stability in open environment for one week; settings: for decomposition of oxaloacetic acid compounded with the ingredient and compressed into a lozenge: examination over a period of one week; for effective way of increasing the pH without degrading the oxaloacetic acid: pH modifier combined with oxaloacetic acid
Description: The Applicant set out on a path of discovery to ascertain what compounds would be stable with oxaloacetic acid—not just for pH modification, but for other physical properties necessary for various delivery systems, such as color stabilization, lozenge dissolve time, lozenge friability, taste, lozenge release from the tablet mold, flow agents, and bulking agents in addition to pH modification. Preparations of oxaloacetic acid was compounded with various ingredients and compressed into a lozenge for examination over a period of one week.
A lozenge is created consisting of 100 mg oxaloacetic acid, and 100 mg of a test substance. The powders are compressed in a tablet mold and released. Each test tablet is placed on a cardboard for one week to ascertain stability in an open environment, such as an open bottle.
The procedure in Example 1 was followed, but with the following individual modifiers to oxaloacetic acid: • Calcium Carbonate (pH Modifier) • Erythitol (Taste Modifier) • Dicalcium Phosphate dihydrate (pH Modifier and lozenge binder) • Vegetable Steric Acid (Release Agent) • Ascorbyl Palmitate (Release Agent)

[2] = oxaloacetic acid with anhydrous NaOH or KOH or both
[3] = pH of solution created by oxaloacetic acid delivered to the mouth; format: physicochemical; settings: delivered to the mouth in powder or lozenge form
Description: Other methods of delivery are transdermal patches, sublingual lozenges, buccal lozenges, inhalation preparations and anal or vaginal suppositories. These methods of delivery can provide higher percentages of the given oxaloacetate to the blood stream for distribution to various organs, and provide the oxaloacetate quicker than the oral route. These delivery methods face a problem with the acidity of oxaloacetic acid. As an example of this, oxaloacetic acid delivered to the mouth in powder or lozenge form creates a solution at a pH of approximately 2.3. This low pH degrades the enamel on the teeth, and provides a large challenge to continued long-term use of oxaloacetate in sublingual lozenges and buccal lozenges. The effect on the teeth is apparent after just 100 mg oxaloacetate is taken either sublingually or via buccal lozenge. The low pH also causes a painful burning sensation in the lungs if inhaled. Vaginal and anal suppositories are also uncomfortable at low pH. Transdermal patches at low pH are also uncomfortable.

[4] = Yoshikawa 1968; Cash 2013; room temperature for the sodium salt; cited from earlier work

Molecule	decomposition of oxaloacetic acid compounded with the ingredient and compressed into a lozenge [1]	further results
CCCCCCCCCCCCCCCC(=O)OC[C@H](O)[C@H]1OC(=O)C(O)=C1O [Ascorbyl Palmitate]	effective	
O=C([O-])[O-].[Ca+2] [Calcium Carbonate]	effective	effective way of increasing the pH without degrading the oxaloacetic acid [1]: effective
O=P([O-])([O-])O.[Ca+2] [Calcium Phosphate Dibasic]	rapid decomposition	
O=C(O)CC(O)(CC(=O)O)C(=O)O [Citric Acid]	rapid decomposition	
O.O.O=P([O-])([O-])O.[Ca+2] [Dicalcium Phosphate dihydrate]	effective	
OC[C@@H](O)[C@@H](O)CO [Erythitol]	effective	
[K+].[OH-] [KOH, potassium hydroxide]	rapid decomposition	effective way of increasing the pH without degrading the oxaloacetic acid [1]: not effective; degradation of sublingual tablets after manufacture [2]: degraded within a few days
[Mg+2].[OH-].[OH-] [Magnesium Hydroxide]	rapid decomposition	
[O]=[Mg] [Magnesium Oxide]	rapid decomposition	
[Cl-].[Na+] [NaCl]	rapid decomposition	
[Na+].[OH-] [NaOH, sodium hydroxide]	rapid decomposition	
O=C([O-])O.[K+] [Potassium Bicarbonate]	rapid decomposition	
O=C([O-])CC(O)(CC(=O)[O-])C(=O)[O-].[K+].[K+].[K+] [Potassium Citrate]	rapid decomposition	
O=C([O-])O.[Na+] [Sodium bicarbonate]	rapid decomposition	effective way of increasing the pH without degrading the oxaloacetic acid [1]: not effective
OC[C@H]1O[C@@](CO)(O[C@H]2O[C@H](CO)[C@@H](O)[C@H](O)[C@H]2O)[C@@H](O)[C@@H]1O [Table sugar]	rapid decomposition	
[O]=[Ti]=[O] [TiO2]	rapid decomposition	
CCCCCCCCCCCCCCCCCC(=O)O [Vegetable Steric Acid]	effective	
OC[C@@H](O)[C@H](O)[C@@H](O)CO [Xylitol]	rapid decomposition; also recorded: did not work well	
O=C(O)CC(=O)C(=O)O [oxaloacetic acid]		pH of solution [3]: approximately 2.3; stability [4]: not stable at all
O=C([O-])CC(=O)C(=O)O.[Na+] [sodium oxaloacetate]		stability [4]: not stable, and quickly degrades at room temperature
Magnesium Stearate	rapid decomposition	
Silicon Dioxide	rapid decomposition	
